Test results taken from patent US20070287830A1, “Trisazo Dye, Composition Containing the Same for Anisotropic Dye Film, Anisotropic Dye Film, and Polarizing Element” (Mitsubishi Chemical Corporation, priority 2004, published 2007).

Experiments:
[1] = degree of polarization of anisotropic dye film formed by wet system film-forming method; format: physicochemical
Excerpt: In the following Examples, the degree of polarization was obtained by measuring the transmittance of an anisotropic dye film by a spectrophotometer having an iodine type polarizing element disposed in an incident optical system, followed by calculation in accordance with the following formula: Degree of polarization (P %)={(Ty−Tz)/(Ty+Tz)}×100
Tz: transmittance of a dye film for a polarized light in the absorption axis direction
Ty: transmittance of a dye film for a polarized light in the polarization axis direction
On the other hand, as a substrate, a glass substrate having a polyimide oriented film formed thereon by silk printing (75 mm×25 mm, thickness 1.1 mm, the polyimide oriented film with a polyimide film thickness of about 800 Å preliminarily subjected to rubbing treatment with cotton cloth) was prepared. […]
The transmittance (Tz) of the obtained anisotropic dye film for a polarized light having a plane of vibration in the absorption axis direction in the plane of the dye film and the transmittance (Ty) for a polarized light having a plane of vibration in the polarization axis direction in the plane of the dye film were measured and shown in FIG. 1. […]

[2] = transmission chromaticity and excitation purity of dye aqueous solution under standard illuminant D65; format: physicochemical
Method: Here the excitation purity is obtained in such a manner that the chromaticity coordinates N of standard illuminant and the chromaticity coordinates C of the obtained dye in the chromaticity diagram are connected with a straight line, and the wavelength corresponding to the intersection point of the extension of the straight line and the spectrum locus is taken as the dominant wavelength, and the excitation purity is calculated from the proportion at the respective points. The chromaticity coordinate C can be obtained in such a manner that the dye is added to water to obtain a dye aqueous solution, the visible light transmittance of the aqueous solution is measured by a spectrophotometer, and the chromaticities x and y in the CIE 1964 supplementary standard […] system under standard illuminant D65 are calculated.
The excitation purity of the dye in the present invention means one measured and calculated with respect to the dye aqueous solution obtained by adding the dye to water and the excitation purity of the anisotropic dye film means one measured and calculated with respect to a film formed by applying a composition for an anisotropic dye film described hereinafter in detail to a substrate. […]

COc1cc(N=Nc2c(S(=O)(=O)O)cc3ccc(N=Nc4cc(S(=O)(=O)O)c(N)cc4N)cc3c2O)c(OC)cc1N=Nc1ccc(OC)c(S(=O)(=O)O)c1 [dye No. (1-1)]
degree of polarization (P %) (light absorption anisotropy) ([1]; spin coated on rubbed polyimide/glass, from about 500 nm to about 650 nm): at least 80% | degree of polarization (P %) ([1]; vicinity of maximum absorption wavelength, from 550 nm to 600 nm): at least 90% | trail of the chromaticity of the aqueous solution at the respective dye concentrations ([2]; C.I.E. chromaticity diagram, 10% (or 5 wt %), 1,000 ppm and 10 ppm): passed near the chromaticity (w) of standard illuminant D65 | excitation purity (pe) ([2]; dye aqueous solution at a concentration of 10%, optical path length 0.01 mm, D65): 17%
